Reference: ChEMBL document CHEMBL1141727, “Isolation and cytotoxic evaluation of marine sponge-derived norterpene peroxides” (J Nat Prod, 1998)

How the values were obtained:
Type in all cases: functional
CCRF-CEM = test: Growth inhibition of human CCRF-CEM cells
HL-60(TB) = test: Growth inhibition of human HL-60(TB) cells
K562 = test: Growth inhibition of human K562 cells
MOLT-4 = test: Growth inhibition of human MOLT4 cells
[1] = Growth inhibition of human […] cells
SR = test: Growth inhibition of human SR cells
A549 = test: Growth inhibition of human A549 cells
EKVX = test: Growth inhibition of human EKVX cells
HOP-62 = test: Growth inhibition of human HOP62 cells
HOP-92 = test: Growth inhibition of human HOP92 cells
NCI-H226 = test: Growth inhibition of human NCI-H226 cells
NCI-H23 = test: Growth inhibition of human NCI-H23 cells
NCI-H322M = test: Growth inhibition of human NCI-H322M cells
NCI-H460 = test: Growth inhibition of human NCI-H460 cells
NCI-H522 = test: Growth inhibition of human NCI-H522 cells
COLO 205 = test: Growth inhibition of human COLO205 cells
HCC 2998 = test: Growth inhibition of human HCC2998 cells
HCT-116 = test: Growth inhibition of human HCT116 cells
HCT-15 = test: Growth inhibition of human HCT15 cells
HT-29 = test: Growth inhibition of human HT-29 cells
KM12 = test: Growth inhibition of human KM12 cells
SW-620 = test: Growth inhibition of human SW620 cells
SF-295 = test: Growth inhibition of human SF295 cells
SF-539 = test: Growth inhibition of human SF539 cells
SNB-19 = test: Growth inhibition of human SNB19 cells
SNB-75 = test: Growth inhibition of human SNB75 cells
U-251 = test: Growth inhibition of human U251 cells
LOX IMVI = test: Growth inhibition of human LOXIMVI cells
Malme-3M = test: Growth inhibition of human MALME-3M cells
M14 = test: Growth inhibition of human M14 cells
SK-MEL-2 = test: Growth inhibition of human SK-MEL-2 cells
SK-MEL-28 = test: Growth inhibition of human SK-MEL-28 cells
SK-MEL-5 = test: Growth inhibition of human SK-MEL-5 cells
UACC-257 = test: Growth inhibition of human UACC257 cells
UACC-62 = test: Growth inhibition of human UACC62 cells
IGROV-1 = test: Growth inhibition of human IGROV1 cells
OVCAR-3 = test: Growth inhibition of human OVCAR-3 cells
OVCAR-4 = test: Growth inhibition of human OVCAR4 cells
OVCAR-5 = test: Growth inhibition of human OVCAR5 cells
OVCAR-8 = test: Growth inhibition of human OVCAR8 cells
SK-OV-3 = test: Growth inhibition of human SKOV3 cells
786-0 = test: Growth inhibition of human 786-0 cells
A498 = test: Growth inhibition of human A498 cells
ACHN = test: Growth inhibition of human ACHN cells
CAKI-1 = test: Growth inhibition of human Caki1 cells
RXF 393 = test: Growth inhibition of human […] cells
SN12C = test: Growth inhibition of human SN12C cells
TK-10 = test: Growth inhibition of human TK10 cells
UO-31 = test: Growth inhibition of human UO31 cells
PC-3 = test: Growth inhibition of human PC3 cells
DU-145 = test: Growth inhibition of human DU145 cells
MCF7 = test: Growth inhibition of human MCF7 cells
[2] = Growth inhibition of human MCF7/ADR resistant cells; details: NCI/ADR-RES
MDA-MB-231 = test: Growth inhibition of human MDA-MB-231 cells
[3] = Growth inhibition of human Hs 578T cells
MDA-MB-435 = test: Growth inhibition of human MDA-MB-435 cells
MDA-N = test: Growth inhibition of human MDA-N cells
BT-549 = test: Growth inhibition of human BT549 cells
T47D = test: Growth inhibition of human T47D cells
L1210 = test: Growth inhibition of mouse L1210 cells assessed as zone units at 50 ug/disk by disk diffusion agar colony formation assay
P388 = test: Growth inhibition of mouse P388 cells assessed as zone units at 50 ug/disk by disk diffusion agar colony formation assay
MC-38 = test: Growth inhibition of mouse C38 cells assessed as zone units at 50 ug/disk by disk diffusion agar colony formation assay
[4] = Growth inhibition of mouse M17/ADR cells assessed as zone units at 50 ug/disk by disk diffusion agar colony formation assay
CX-1 = test: Growth inhibition of human CX-1 cells assessed as zone units at 50 ug/disk by disk diffusion agar colony formation assay
PO3 = test: Growth inhibition of mouse PO3 cells assessed as zone units at 50 ug/disk by disk diffusion agar colony formation assay
[5] = Growth inhibition of human H116 cells assessed as zone units at 50 ug/disk by disk diffusion agar colony formation assay

## C=C1CCCC(C)(C)C1CCC1(C)CC[C@H]([C@@H](C)C(=O)O)OO1 (single isomer, unassigned) [NAPAPUIN B]
CCRF-CEM
  GI50: 1.76 µM
HL-60(TB)
  GI50: 1.63 µM
K562
  GI50: 3.3 µM
MOLT-4
  GI50: 2.16 µM
[1]
  GI50: 3.91 µM
SR
  GI50: 1.8 µM
A549
  GI50: 3.05 µM
EKVX
  GI50: 3.19 µM
HOP-62
  GI50: 2.11 µM
HOP-92
  GI50: 2.23 µM
NCI-H226
  GI50: 12.5 µM
NCI-H23
  GI50: 7.61 µM
NCI-H322M
  GI50: 12.5 µM
NCI-H460
  GI50: 1.83 µM
NCI-H522
  GI50: 1.21 µM
COLO 205
  GI50: 8.31 µM
HCC 2998
  GI50: 6.78 µM
HCT-116
  GI50: 5.19 µM
HCT-15
  GI50: 10.7 µM
HT-29
  GI50: 9.26 µM
KM12
  GI50: 4.82 µM
SW-620
  GI50: 7.23 µM
SF-295
  GI50: 5.44 µM
SF-539
  GI50: 3.28 µM
SNB-19
  GI50: > 12.5 µM
SNB-75
  GI50: 3.39 µM
U-251
  GI50: 4.33 µM
LOX IMVI
  GI50: 0.25 µM
Malme-3M
  GI50: > 12.5 µM
M14
  GI50: 12.2 µM
SK-MEL-2
  GI50: 5.06 µM
SK-MEL-28
  GI50: > 12.5 µM
SK-MEL-5
  GI50: 6.14 µM
UACC-257
  GI50: > 12.5 µM
UACC-62
  GI50: 9.24 µM
IGROV-1
  GI50: 0.63 µM
OVCAR-3
  GI50: 2.49 µM
OVCAR-4
  GI50: 2.4 µM
OVCAR-5
  GI50: > 12.5 µM
OVCAR-8
  GI50: > 12.5 µM
SK-OV-3
  GI50: 9.24 µM
786-0
  GI50: 0.94 µM
A498
  GI50: > 12.5 µM
ACHN
  GI50: 7.83 µM
CAKI-1
  GI50: 2 µM
RXF 393
  GI50: 5.04 µM
SN12C
  GI50: 11.3 µM
TK-10
  GI50: 4.06 µM
UO-31
  GI50: 4.31 µM
PC-3
  GI50: > 12.5 µM
DU-145
  GI50: 2.71 µM
MCF7
  GI50: > 12.5 µM
[2]
  GI50: 8.78 µM
MDA-MB-231
  GI50: 7.44 µM
[3]
  GI50: 8.74 µM
MDA-MB-435
  GI50: 2.69 µM
MDA-N
  GI50: 3.52 µM
BT-549
  GI50: 1.05 µM
T47D
  GI50: 3.35 µM
L1210
  Activity: 230 Zone units
P388
  Activity: 230 Zone units
MC-38
  Activity: 300 Zone units
[4]
  Activity: 330 Zone units
CX-1
  Activity: 200 Zone units

## C=C1CCCC(C)(C)C1CC[C@]1(C)CC[C@@H]([C@@H](C)C(=O)O)OO1 (stereo partly drawn) [EPINUAPAPUIN B]
CCRF-CEM
  GI50: 2.27 µM
HL-60(TB)
  GI50: 2.06 µM
MOLT-4
  GI50: 7.43 µM
[1]
  GI50: > 10 µM
SR
  GI50: 2.72 µM
A549
  GI50: > 10 µM
EKVX
  GI50: > 10 µM
HOP-62
  GI50: 9.54 µM
HOP-92
  GI50: 6.63 µM
NCI-H226
  GI50: > 10 µM
NCI-H23
  GI50: > 10 µM
NCI-H322M
  GI50: > 10 µM
NCI-H460
  GI50: > 10 µM
NCI-H522
  GI50: 2.06 µM
COLO 205
  GI50: > 10 µM
HCC 2998
  GI50: > 10 µM
HCT-116
  GI50: > 10 µM
HCT-15
  GI50: > 10 µM
HT-29
  GI50: > 10 µM
KM12
  GI50: 5.73 µM
SW-620
  GI50: > 10 µM
SF-295
  GI50: > 10 µM
SF-539
  GI50: > 10 µM
SNB-75
  GI50: > 10 µM
U-251
  GI50: > 10 µM
Malme-3M
  GI50: 3.96 µM
M14
  GI50: > 10 µM
SK-MEL-2
  GI50: > 10 µM
SK-MEL-28
  GI50: > 10 µM
SK-MEL-5
  GI50: > 10 µM
UACC-257
  GI50: > 10 µM
UACC-62
  GI50: > 10 µM
IGROV-1
  GI50: 1.73 µM
OVCAR-3
  GI50: > 10 µM
OVCAR-4
  GI50: > 10 µM
OVCAR-5
  GI50: > 10 µM
OVCAR-8
  GI50: > 10 µM
SK-OV-3
  GI50: > 10 µM
786-0
  GI50: > 10 µM
A498
  GI50: > 10 µM
ACHN
  GI50: > 10 µM
CAKI-1
  GI50: > 10 µM
RXF 393
  GI50: > 10 µM
SN12C
  GI50: > 10 µM
UO-31
  GI50: > 10 µM
DU-145
  GI50: > 10 µM
MCF7
  GI50: > 10 µM
[2]
  GI50: > 10 µM
MDA-MB-231
  GI50: > 10 µM
[3]
  GI50: > 10 µM
MDA-MB-435
  GI50: > 10 µM
MDA-N
  GI50: > 10 µM
BT-549
  GI50: > 10 µM
T47D
  GI50: > 10 µM
L1210
  Activity: 160 Zone units
P388
  Activity: 160 Zone units
PO3
  Activity: 60 Zone units
[4]
  Activity: 210 Zone units
[5]
  Activity: 70 Zone units
